Measurements: the supplement of paper PMC11208160

Assay: recombinant barcode read abundance after kanamycin selection (control-corrected) (log10(CPM+1)); higher = more efficient recombination; sequences stand for … in AGTGCAGAGAAAATCGGCCAGTTTTCTCTGCCTGCAGTCCGCATGCCGT…AGATTTATGCAGCGGACTGCCTTTCTCCCAAAGTGATAAACCGGACAGTATCATGGACCGGTTTTCCCGGTAATCCGTATTTGCAAGGTTGGTTTCACT; site = the 11-nt target
Procedure, shortened: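 Targets and IS621 bridge RNA target-binding loops were paired in oligos, each with a promoter, a barcode and the J23119-driven first 104 bridge RNA bases. A vector carrying the remaining 73 bp and a T7-inducible recombinase received these by Gibson cloning, and the pool was co-electroporated into E. coli with a donor plasmid. Duplicate plates contained chloramphenicol/ampicillin LB agar (control) or chloramphenicol/ampicillin/kanamycin with 0.1 mM IPTG. Recombination efficiency comes from averaged, control-corrected counts per million of recombinant-junction barcodes, reported as log10(CPM+1).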
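Also: IS621 recombinase and bridge RNA in Escherichia coli cells.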

Point of comparison: “GAGTACCCTTGGGTTCTAACCTGTTGCCT (site GAGTACCCTAG)”, “recombinant barcode read abundance (log10)” value 1.96. Against it:
- GACTCTCCTTGGGTTCTAACCTGTTGCCT (site GACTCTCCTAG) — lower, 0.0776
- GACTCTCCTTGGGTTCTAACCTGTTGCCT (site GACTCTCCTAT) — lower, 0.191
- GACTGGCCTTGGGTTCTAACCTGTTGCAG (site ATGGACACTAC) — lower, 0.0143
- GACTGGCCTTGGGTTCTAACCTGTTGCAG (site GACTGGCCTCT) — lower, 0.862
- GACTTAACTTGGGTTCTAACCTGTTGCTT (site CCTAAGTCTTG) — lower, 0.0154
- GACTTAACTTGGGTTCTAACCTGTTGCTT (site GACTTAACTAA) — lower, 0.48
- GAGAATACTTGGGTTCTAACCTGTTGCGT (site AAGAATACTAG) — lower, 0.0615
- GAGAATACTTGGGTTCTAACCTGTTGCGT (site GAGAATACTAC) — higher, 2.41
- GAGAATCCTTGGGTTCTAACCTGTTGCGT (site GAGAATCCTAC) — higher, 2.49
- GAGAATCCTTGGGTTCTAACCTGTTGCGT (site GAGTACCCTAC) — lower, 0.0692
- GAGACAACTTGGGTTCTAACCTGTTGCCT (site GAGACAACTAG) — lower, 0.173
- GAGACAACTTGGGTTCTAACCTGTTGCCT (site GGGACAGCTAG) — lower, 0.303
- GAGACGACTTGGGTTCTAACCTGTTGCCG (site GAGACGACTCG) — lower, 1.61
- GAGACGACTTGGGTTCTAACCTGTTGCCG (site GAGATGACTCC) — lower, 0.0966
- GAGAGATCTTGGGTTCTAACCTGTTGCCT (site GAGAAATCTAG) — lower, 0.749
- GAGAGATCTTGGGTTCTAACCTGTTGCCT (site GAGACATCTAG) — lower, 0.157
- GAGAGATCTTGGGTTCTAACCTGTTGCCT (site GAGAGATCTAG) — lower, 1.46
- GAGAGATCTTGGGTTCTAACCTGTTGCCT (site GAGATATCTAG) — lower, 0.117
- GAGAGCACTTGGGTTCTAACCTGTTGCCT (site AAGAGCACTAG) — lower, 0.256
- GAGAGCACTTGGGTTCTAACCTGTTGCCT (site CAGAGCACTAG) — lower, 0.603
- GAGAGCACTTGGGTTCTAACCTGTTGCCT (site GAGAGCACTAG) — lower, 1.4
- GAGAGCACTTGGGTTCTAACCTGTTGCCT (site TAGAGCACTAG) — lower, 0.548
- GAGAGGTCTTGGGTTCTAACCTGTTGCAT (site GAGAGGTCTAA) — lower, 0.552
- GAGAGGTCTTGGGTTCTAACCTGTTGCAT (site GAGAGGTCTAC) — lower, 0.435
- GAGAGGTCTTGGGTTCTAACCTGTTGCAT (site GAGAGGTCTAG) — lower, 0.458
- GAGAGGTCTTGGGTTCTAACCTGTTGCAT (site GAGAGGTCTAT) — within 0.2 log units, 1.82
- GAGAGGTCTTGGGTTCTAACCTGTTGCTT (site GAGAGGTCTAA) — within 0.2 log units, 1.79
- GAGAGGTCTTGGGTTCTAACCTGTTGCTT (site GAGAGGTCTAC) — lower, 0.202
- GAGAGGTCTTGGGTTCTAACCTGTTGCTT (site GAGAGGTCTAG) — lower, 0.893
- GAGAGGTCTTGGGTTCTAACCTGTTGCTT (site GAGAGGTCTAT) — lower, 1.46
- GAGCAACCTTGGGTTCTAACCTGTTGCTT (site ATAAGCTCTCG) — lower, 0.25
- GAGCAACCTTGGGTTCTAACCTGTTGCTT (site GAGCAACCTAA) — lower, 0.0979
- GAGCAGGCTTGGGTTCTAACCTGTTGCTT (site AGTTCTCCTCG) — lower, 0.196
- GAGCAGGCTTGGGTTCTAACCTGTTGCTT (site GAGCAGGCTAA) — lower, 0.661
- GAGCCATCTTGGGTTCTAACCTGTTGCTT (site GAGCCATCTAA) — lower, 0.524
- GAGCCATCTTGGGTTCTAACCTGTTGCTT (site GAGTCGTCTAA) — lower, 0.261
- GAGCGCTCTTGGGTTCTAACCTGTTGCCG (site GAGCGCTCTCG) — lower, 0.754
- GAGCGCTCTTGGGTTCTAACCTGTTGCCG (site GAGCGTTCTAG) — lower, 0.269
- GAGGACTCTTGGGTTCTAACCTGTTGCCA (site GAGGACTCTAG) — lower, 1.46
- GAGGACTCTTGGGTTCTAACCTGTTGCCA (site GAGGACTCTCG) — lower, 0.263
- GAGGACTCTTGGGTTCTAACCTGTTGCCA (site GAGGACTCTGG) — lower, 0.824
- GAGGACTCTTGGGTTCTAACCTGTTGCCA (site GAGGACTCTTG) — higher, 2.27
- GAGGCTTCTTGGGTTCTAACCTGTTGCCT (site GAGGCTTCTAG) — lower, 0.42
- GAGGCTTCTTGGGTTCTAACCTGTTGCCT (site GCGGCTTCTAG) — lower, 0.435
- GAGGCTTCTTGGGTTCTAACCTGTTGCCT (site GGGGCTTCTAG) — lower, 0.184
- GAGGCTTCTTGGGTTCTAACCTGTTGCCT (site GTGGCTTCTAG) — lower, 0.515
- GAGGGAGCTTGGGTTCTAACCTGTTGCAT (site GAGAGAGCTAT) — lower, 1.33
- GAGGGAGCTTGGGTTCTAACCTGTTGCAT (site GAGCGAGCTAT) — lower, 0.171
- GAGGGAGCTTGGGTTCTAACCTGTTGCAT (site GAGGGAGCTAT) — higher, 2.43
- GAGGGAGCTTGGGTTCTAACCTGTTGCAT (site GAGTGAGCTAT) — lower, 0.315
- GAGGGGACTTGGGTTCTAACCTGTTGCAG (site GAGGGGACTCT) — higher, 2.76
- GAGGGGACTTGGGTTCTAACCTGTTGCAG (site TCCTTCTCTAG) — lower, 0.307
- GAGGTATCTTGGGTTCTAACCTGTTGCGT (site GAGGTATCTAC) — lower, 0.252
- GAGGTATCTTGGGTTCTAACCTGTTGCGT (site GAGGTATCTTG) — lower, 0.303
- GAGGTATCTTGGGTTCTAACCTGTTGCTT (site GAGGTATCTAA) — lower, 0.35
- GAGGTATCTTGGGTTCTAACCTGTTGCTT (site GAGGTATCTTA) — lower, 0.0893
- GAGGTCACTTGGGTTCTAACCTGTTGCTA (site GAGGTCACTTA) — higher, 2.26
- GAGGTCACTTGGGTTCTAACCTGTTGCTA (site TCTCCTCCTAT) — lower, 0.186
- GAGGTCCCTTGGGTTCTAACCTGTTGCGG (site CTCCCTGCTAG) — lower, 0.2
- GAGGTCCCTTGGGTTCTAACCTGTTGCGG (site GAGGTCCCTCC) — higher, 2.93
- GAGTACACTTGGGTTCTAACCTGTTGCGC (site AGCGCGCCTCA) — lower, 0.0967
- GAGTACACTTGGGTTCTAACCTGTTGCGC (site GAGTACACTGC) — higher, 2.53
- GAGTACCCTTGGGTTCTAACCTGTTGCCT (site GCGTACCCTAG) — lower, 0.162
- GAGTACCCTTGGGTTCTAACCTGTTGCCT (site GGGTACCCTAG) — lower, 0.619
- GAGTACCCTTGGGTTCTAACCTGTTGCCT (site GTGTACCCTAG) — lower, 0.0322
- GAGTAGACTTGGGTTCTAACCTGTTGCTT (site GAGTAGACTAA) — lower, 1.64
- GAGTAGACTTGGGTTCTAACCTGTTGCTT (site GAGTAGTCTAA) — lower, 1.22
- GAGTATGCTTGGGTTCTAACCTGTTGCCT (site GAGTATGCTAG) — lower, 1.72
- GAGTATGCTTGGGTTCTAACCTGTTGCCT (site GATTATGCTAG) — lower, 0.223
- GAGTATTCTTGGGTTCTAACCTGTTGCCT (site GAATATTCTAG) — lower, 1.2
- GAGTATTCTTGGGTTCTAACCTGTTGCCT (site GACTATTCTAG) — lower, 0.0264
- GAGTATTCTTGGGTTCTAACCTGTTGCCT (site GAGTATTCTAG) — lower, 1.16
- GAGTATTCTTGGGTTCTAACCTGTTGCCT (site GATTATTCTAG) — lower, 0.123
- GAGTCGTCTTGGGTTCTAACCTGTTGCCT (site GAGTCGCCTAG) — lower, 0.193
- GAGTCGTCTTGGGTTCTAACCTGTTGCCT (site GAGTCGTCTAG) — within 0.2 log units, 1.78
- GAGTCTACTTGGGTTCTAACCTGTTGCCA (site CCTATAGCTAA) — lower, 0.0951
- GAGTCTACTTGGGTTCTAACCTGTTGCCA (site GAGTCTACTTG) — lower, 0.317
- GAGTCTACTTGGGTTCTAACCTGTTGCCG (site GAGTCTACTCG) — lower, 0.562
- GAGTCTACTTGGGTTCTAACCTGTTGCCG (site GAGTCTACTCT) — lower, 0.0936
- GAGTTAACTTGGGTTCTAACCTGTTGCCG (site GAGTTAACTCG) — lower, 0.262
- GAGTTAACTTGGGTTCTAACCTGTTGCCG (site GTGTGAACTCG) — lower, 0.0546
- GAGTTCCCTTGGGTTCTAACCTGTTGCGT (site GAGTTACCTAC) — lower, 0.341
- GAGTTCCCTTGGGTTCTAACCTGTTGCGT (site GAGTTCCCTAC) — higher, 2.66
- GAGTTCCCTTGGGTTCTAACCTGTTGCGT (site GAGTTGCCTAC) — lower, 0.23
- GAGTTCCCTTGGGTTCTAACCTGTTGCGT (site GAGTTTCCTAC) — lower, 0.0134
